Consider one compound from patent US20060287383A1, “Substance exhibiting antidepressant property” (priority 2003, published 2006).

Format in all cases: in vivo
Experiment [1] relates to white outbred male rats. Nature of the experiment: involuntary swimming in a reservoir with freely moving wheels according to Nomura. The procedure: The method of involuntary swimming in a reservoir with freely moving wheels (Nomura S., Shimizu J., Kinjo M. et al. A new behavioral test for antidepressant drugs//Eur. J. Pharmacol.—1982.—v. 83.—N 34.—p. 171-175) is widely used for assessing the action of antidepressant agents. The installation is a reservoir having dimensions of 64×30×42 cm and divided into four equal sections where wheels are located. The reservoir is filled with water at the temperature of 25° C., coming to the medium line of the wheels. The studies have been conducted with white outbred male rats having the weight from 230 to 250 grams. The rats have been put into each section in the position where their heads are opposite to the wheels, and then the wheel speed has been recorded for 10 minutes with the use of electromechanical counters. The number of wheel revolutions made by the rat for 10 minutes is recorded.
This study has been conducted with animals from different groups. The rats from the experimental groups have received single doses of phenotropyl in the amounts of 25, 50 and 100 mg/kg or the standard amitriptyline medication in the amount of 10 mg/kg (ampoule solution made by Spofa, the Czech Republic) in the volume corresponding to the dosage. The animals from the control group have received distilled water in the same dosage. All the substances have been given intragastrically 40 minutes before the an experiment.

Experiment [2] relates to white outbred male rats. The experiment in a line: Porsolt method of behavioral despair (helplessness). Conditions: for Time of immobility: 10 minutes observation. From the text: The Porsolt method of behavioral despair (helplessness) (Porsolt R. D., Anton G., Blavet N. et al. Behavioral despair in rats: a new model sensitive to antidepressant treatment//Europ. J. Pharmacol. 1978—v. 47.—p. 379-391) is the basic model for assessing antidepressants (Andreeva N. I., ? H. ? . the Methodical Guidelines for Studying Antidepressant Activity of Pharmaceuticals,//Guidebook for Experimental (Preclinical) Studies of New Pharmaceuticals of the RF Ministry of Public Health.—ZAO IIA “Remedium”.—2000.—p. 121-125). The studies have been conducted on white outbred male rats having the weight of 230-250 grams. The animals have been put into a water reservoir having 40 cm in diameter and the depth of 60 cm, for the rats cannot either run out of the reservoir or find a support in it. The water temperature has been maintained at the level of 25° C., the experiments have been conducted within the period from 12 A.M. to 4 P.M. After coming into water the animals begin displaying energetic motion activity aimed at finding a way out of the aversive (troublesome) situation, but then they stop their attempts and take a typical position in the water, while being fully immovable or making insignificant motions necessary for keeping their heads over the water surface. The depressive condition intensity rate in this test is the duration of immobility. The immobility condition has been assessed visually, determining its duration within 10 minutes of the observations. Substances having antidepressant activity alleviate this condition by reducing the immobility time.
The studies have been conducted using animals divided into groups. The animals from the experimental groups have received single doses of phenotropyl in the amounts of 25, 50 and 100 mg/kg or the standard amitriptyline medication in the amount of 10 mg/kg (ampoule solution made by Spofa, the Czech Republic) in the volume corresponding to the dose. The animals from the control group have received distilled water in the same dosage. All the substances have been given intragastrically 40 minutes before the an experiment.

The next experiment has as its system white outbred male mice. Nature of the experiment: haloperidol catalepsy method. How it is done:
As one of the indicators for antidepressant antagonism in relation to depriming effects of neuroleptics, neuroleptic-induced catalepsy is used. The maintenance of catalepsy in animals is assessed by their ability to maintain set or unusual poses for a definite time (Morpurgo C. Effects of antiparkinson drugs on phenothiazine induced catatonia reaction//Arch. Int Pharmacodyn., 1962, vol. 137 No 1-2, p. 84-94). Reduction or prevention of catalepsy is one of the factors showing antidepressant activity in studied substances.
The studies have been conducted with white outbred male mice having the weight from 18 to 24 grams. Haloperidol is introduced intraperitoneally in a single dose of 0.5 mg/kg. Phenotropyl has been introduced intraperitoneally in doses of 50, 100 and 200 mg/kg in 15 minutes after the introduction of haloperidol. The catalepsy intensity has been assessed by time (in seconds) of keeping the animals in an uncomfortable pose where their front legs have been put onto a bar having the height of 4 cm, in 60, 120 and 180 minutes after introducing the said medications. It is shown in Table 4 that phenotropyl clearly antagonizes haloperidol-induced catalepsy.

[3] abbreviates: single dose 25 mg/kg intragastrically 40 minutes before.
Where [4] appears, read: single dose 50 mg/kg intragastrically 40 minutes before.

Structures are written as SMILES.

Consider `NC(=O)CN1CC(c2ccccc2)CC1=O` (centres unmarked) [Phenotropyl, N-carbamoyl-methyl-4-phenyl-2-pyrrolidone], for which the “Number of wheel revolutions for 10 minutes” value with white outbred male rats [1] (setting [3]) is 89.3 ± 17.2; with white outbred male rats [1] (setting [4]), 102.7 ± 16.1; in the experiment on white outbred male rats [1] (single dose 100 mg/kg intragastrically 40 minutes before, 100 mg/kg) it was 121.8 ± 23.7; with white outbred male rats [1] (single dose 100 mg/kg intragastrically 40 minutes before, listed as phenotropyl, 100 mg/kg), 121.8±23.7. For the same compound, the “reduction in the time of immobility as compared to the control group” value in the experiment with white outbred male rats [2] (doses of 50 and 100 mg/kg) is on record as 1.6 times. The figures for the Time of immobility with white outbred male rats [2] (setting [3]), in the experiment on white outbred male rats [2] (setting [4]) and with white outbred male rats [2] (single dose 100 mg/kg intragastrically 40 minutes before) were 275.5 ± 84.2 s, 185.7 ± 49.5 s and 158.4 ± 43.2 s, respectively. Besides, in the experiment on white outbred male rats [2] (single doses of 50 and 100 mg/kg), the “antidepressant effect in behavioral despair test” value was “pronounced antidepressant effect”. In addition, the “Catalepsy” value with white outbred male mice (haloperidol 0.5 mg/kg + phenotropyl 50 mg/kg intraperitoneally, 60 minutes) was determined as 0.0 ± 0.0 s; with white outbred male mice (haloperidol 0.5 mg/kg + phenotropyl 50 mg/kg intraperitoneally, 120 minutes), 8.2 ± 3.2 s; with white outbred male mice (haloperidol 0.5 mg/kg + phenotropyl 50 mg/kg intraperitoneally, 180 minutes) it was 4.5 ± 2.5 s; with white outbred male mice (haloperidol 0.5 mg/kg + phenotropyl 100 mg/kg intraperitoneally, 60 minutes), 0.0 ± 0.0 s; with white outbred male mice (haloperidol 0.5 mg/kg + phenotropyl 100 mg/kg intraperitoneally, 120 minutes), 2.0 ± 1.0 s; in the experiment with white outbred male mice (haloperidol 0.5 mg/kg + phenotropyl 100 mg/kg intraperitoneally, 180 minutes), 0.0 ± 0.0 s. For the same compound, the “Catalepsy” value in the experiment on white outbred male mice (haloperidol 0.5 mg/kg + phenotropyl 200 mg/kg intraperitoneally, 60 minutes) was 0.0 ± 0.0 s; in the experiment on white outbred male mice (haloperidol 0.5 mg/kg + phenotropyl 200 mg/kg intraperitoneally, 120 minutes), 11.8 ± 2.1 s; in the experiment with white outbred male mice (haloperidol 0.5 mg/kg + phenotropyl 200 mg/kg intraperitoneally, 180 minutes), 0.0 ± 0.0 s. The “reduction of catalepsy development level” value with white outbred male mice (phenotropyl 50 mg/kg, 120 minutes) came out at 3.2 times; in the experiment with white outbred male mice (phenotropyl 50 mg/kg, 180 minutes) it was 13.2 times; in the experiment on white outbred male mice (phenotropyl 100 mg/kg, 120 minutes), 14 times. Further, the “development of catalepsy” value in the experiment on white outbred male mice (phenotropyl dose of 100 or 200 mg/kg, 180 minutes) was “fully stopping its development”; in the experiment on white outbred male mice (phenotropyl doses of 50 and 100 mg/kg, 60 minutes) it was “fully prevents the development of catalepsy”.
